Source: patent US20250388583A1, “COMPOUNDS AND METHOD FOR PKMYT1 INHIBITION” (Engine Biosciences Pte. Ltd., priority 2022, published 2025)

Biological target: PKMYT1 (Homo sapiens (Human), UniProt Q99640)
Assay: In vitro assay: kinase binding to immobilized ligand, captured kinase measured by qPCR

Chain of PKMYT1 (Q99640 whole entry): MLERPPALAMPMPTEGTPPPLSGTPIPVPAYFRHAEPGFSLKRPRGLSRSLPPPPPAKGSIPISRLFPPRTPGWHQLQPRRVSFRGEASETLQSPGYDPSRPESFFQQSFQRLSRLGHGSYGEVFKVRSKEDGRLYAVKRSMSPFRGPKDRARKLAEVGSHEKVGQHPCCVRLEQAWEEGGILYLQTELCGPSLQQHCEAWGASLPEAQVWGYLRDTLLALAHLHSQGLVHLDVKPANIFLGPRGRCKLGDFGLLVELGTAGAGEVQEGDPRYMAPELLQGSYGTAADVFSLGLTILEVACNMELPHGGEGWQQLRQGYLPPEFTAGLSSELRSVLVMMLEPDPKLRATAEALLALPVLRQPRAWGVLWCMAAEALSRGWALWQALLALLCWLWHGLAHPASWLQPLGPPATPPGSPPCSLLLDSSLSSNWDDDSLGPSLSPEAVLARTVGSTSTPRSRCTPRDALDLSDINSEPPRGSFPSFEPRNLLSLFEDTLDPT

IC50 [nM]	SMILES
< 50	Cc1ccc(O)c(C)c1-n1c(N)c(C(N)=O)c2cnc(NCCO)nc21 (atropisomer, axis not shown) [Compound 588, 6-amino-7-(3-hydroxy-2,6-dimethylphenyl)-2-((2-hydroxyethyl)amino)-7H-pyrrolo[2,3-d]pyrimidine-5-carboxamide]
50 to 100	Cc1ccc(O)c(C)c1-n1c(N)c(C(N)=O)c2cnc(N[C@@H]3CCC[C@@H]3O)nc21 (atropisomer, axis not shown) [Compound 591]
< 50	Cc1ccc(O)c(C)c1-n1c(N)c(C(N)=O)c2cncc(F)c21 (atropisomer, axis not shown) [Compound 624, 2-amino-7-fluoro-1-(3-hydroxy-2,6-dimethyl-phenyl)pyrrolo[3,2-c]pyridine-3-carboxamide]
100 to 1000	Cc1ccc(O)c(C)c1-n1c(N)c(C(N)=O)c2cncnc21 (single isomer, unassigned) [Compound 571, 6-amino-7-(3-hydroxy-2,6-dimethylphenyl)-7H-pyrrolo[2,3-d]pyrimidine-5-carboxamide]
> 1000	Cc1ccc(O)c(C)c1-n1c(N)c(C(N)=O)c2cnc(NCCO)nc21 (single isomer, unassigned) [Compound 585, 6-amino-7-(3-hydroxy-2,6-dimethylphenyl)-2-((2-hydroxyethyl)amino)-7H-pyrrolo[2,3-d]pyrimidine-5-carboxamide]
> 1000	Cc1cc2c(c(C)c1-n1c(N)c(C(N)=O)c3cc(Cl)cnc31)OCO2 [Compound 546, 2-amino-5-chloro-1-(4,6-dimethylbenzo[d][1,3]dioxol-5-yl)-1H-pyrrolo[2,3-b]pyridine-3-carboxamide]
100 to 1000	Cc1ccc(O)c(C)c1-c1c(N)c(C(N)=O)c2nccc(C)n12 [Compound 548, 7-amino-6-(3-hydroxy-2,6-dimethyl-phenyl)-4-methyl-pyrrolo[1,2-a]pyrimidine-8-carboxamide]
100 to 1000	Cc1ccn2c(-c3c(C)ccc(O)c3C)c(N)c(C(N)=O)c2n1 [Compound 550, 7-amino-6-(3-hydroxy-2,6-dimethyl-phenyl)-2-methyl-pyrrolo[1,2-a]pyrimidine-8-carboxamide]
100 to 1000	Cc1ccn2c(-c3c(C)ccc(O)c3C)c(N)c(C(N)=O)c2c1 [Compound 552, 2-amino-3-(3-hydroxy-2,6-dimethylphenyl)-7-methylindolizine-1-carboxamide]
100 to 1000	Cc1cnc2c(c1)c(C(N)=O)c(N)n2-c1c(C)ccc2ocnc12 [Compound 553, 2-amino-5-methyl-1-(5-methylbenzo[d]oxazol-4-yl)-1H-pyrrolo[2,3-b]pyridine-3-carboxamide]
< 50	Cc1cn2c(C(N)=O)c(N)c(-c3c(C)ccc(O)c3C)c2cn1 [Compound 555, 7-amino-8-(3-hydroxy-2,6-dimethyl-phenyl)-3-methyl-pyrrolo[1,2-a]pyrazine-6-carboxamide]
< 50	Cc1ccc(O)c(C)c1-n1c(N)c(C(N)=O)c2cc3c(nc21)OCCN3C [Compound 568, 7-amino-6-(3-hydroxy-2,6-dimethylphenyl)-1-methyl-1,2,3,6-tetrahydropyrrolo [3′,2′:5,6]pyrido[2,3-b][1,4]oxazine-8-carboxamide]
< 50	Cc1ccc(O)c(C)c1-n1c(N)c(C(N)=O)c2cnc(N3CC(O)C3)nc21 [Compound 573]
< 50	Cc1ccc(O)c(C)c1-n1c(N)c(C(N)=O)c2cnc(N[C@H]3CCC[C@@H]3O)nc21 [Compound 579, 6-amino-7-(3-hydroxy-2,6-dimethylphenyl)-2-(((1S,2S)-2-hydroxycyclopentyl)amino)-7H-pyrrolo[2,3-d]pyrimidine-5-carboxamide]
< 50	Cc1ccc(O)c(C)c1-n1c(N)c(C(N)=O)c2cnc(N[C@@H]3CCC[C@H]3O)nc21 [Compound 580, 6-amino-7-(3-hydroxy-2,6-dimethylphenyl)-2-(((1R,2R)-2-hydroxycyclopentyl)amino)-7H-pyrrolo[2,3-d]pyrimidine-5-carboxamide]
